Values after ≈ are worked out from the molar mass of the structure shown. Like-named read-outs stand apart in the source and are kept apart here.

One assay relates to M. tuberculosis isolates. The experiment in a line: microbe, parasite or virus in culture. The note with it: for MIC50 / MIC90: Mycobacterium tuberculosis; for MIC50: read-out: MIC against M. tuberculosis isolates, MIC50; for MIC90: read-out: MIC against M. tuberculosis isolates, MIC90. Format: cell-based, Mycobacterium tuberculosis.
The test system of a further assay is resistant strain of MTB. The format is in vivo, Mycobacterium tuberculosis. To be noted: for dose giving 2 log reduction in the organs: animals infected with resistant strains.
Assay [1] deals with sensitive/resistant strains of M. tuberculosis. Briefly: Murine model of pulmonary tuberculosis, text statements not split by strain. Format: in vivo, Mycobacterium tuberculosis. To be noted: monotherapy.
Setting [2] is: combination study, one month, doses mg/kg: (I) 25.0 where present, INH 25.0, RIF 20.0, PYR 150.0, ETH 100.0.
The mark [3] stands for this setting: combination study, three months, doses mg/kg: (I) 25.0 where present, INH 25.0, RIF 20.0, PYR 150.0, ETH 100.0.
[4] abbreviates: combination study, two months, doses mg/kg: (I) 25.0 where present, INH 25.0, RIF 20.0, PYR 150.0, ETH 100.0.
The mark [5] stands for this setting: monotherapy 12.5 mg/kg, 8 Weeks Treatment (two months).
Setting [6] is: monotherapy 12.5 mg/kg, 12 Weeks Treatment (three months).
Setting [7] is: monotherapy 12.5 mg/kg, one month of treatment.
Where [8] appears, read: monotherapy 25 mg/kg, 8 Weeks Treatment (two months).
[9] abbreviates: monotherapy 25 mg/kg, 12 Weeks Treatment (three months).
Setting [10] is: monotherapy 25 mg/kg, one month of treatment.
Setting [11] is: monotherapy 50 mg/kg, 8 Weeks Treatment (two months).
[12] abbreviates: monotherapy 50 mg/kg, 12 Weeks Treatment (three months).
Setting [13] is: monotherapy 50 mg/kg, one month of treatment.

Take `CO[C@H]1/C=C/O[C@@]2(C)Oc3c(C)c(O)c4c(O)c(c(/C=N/N5CCN(C)CC5)c(O)c4c3C2=O)NC(=O)/C(C)=C\C=C\[C@H](C)[C@H](O)[C@@H](C)[C@@H](O)[C@@H](C)[C@H](OC(C)=O)[C@@H]1C` [Rifampicin]: in the assay with M. tuberculosis isolates, the MIC50 turned out to be 4 µg/mL (≈ 4.86 µM) and the MIC90 is above 16 µg/mL. In the assay on resistant strain of MTB (setting [2]), the “Mean Log10CFU in organs of mice infected with resistant strain of MTB, Lung” value (“Mean Log10CFU in organs of mice infected … Lung” below) is listed as 3.05 ± 0.43 Log10CFU and the “Mean Log10CFU in organs of mice infected with resistant strain of MTB, Spleen” value (shortened to “Mean Log10CFU in organs … Spleen”) amounted to 2.44 ± 0.32 Log10CFU. For the same molecule, in the assay with resistant strain of MTB (setting [3]), the “Mean Log10CFU in organs of mice infected … Lung” value came to 0.94 ± 1.04 Log10CFU and the “Mean Log10CFU in organs … Spleen” value amounted to 1.78 ± 1.38 Log10CFU. In the assay on resistant strain of MTB (setting [4]), the “Mean Log10CFU in organs of mice infected … Lung” value came out at 2.45 ± 1.15 Log10CFU and the “Mean Log10CFU in organs … Spleen” value stood at 2.60 ± 0.59 Log10CFU.

Consider `NNC(=O)c1ccncc1` [Isoniazid], for which, in the assay on M. tuberculosis isolates, the MIC50 is 4 µg/mL (≈ 29.2 µM). Also, the MIC90 in the assay with M. tuberculosis isolates is above 16 µg/mL. Also, in the assay on resistant strain of MTB, the “dose giving 2 log reduction in the organs” value was above 50 mg/kg. Also, the “Mean Log10CFU in organs of mice infected … Lung” value in the assay with resistant strain of MTB (setting [2]) stood at 5.23 ± 0.27 Log10CFU; with resistant strain of MTB (setting [3]) it was 5.37 ± 0.35 Log10CFU; in the assay on resistant strain of MTB (setting [4]), 5.15 ± 0.42 Log10CFU; in the assay on resistant strain of MTB (setting [5]) it was 6.01 ± 0.9 Log10CFU; in the assay on resistant strain of MTB (setting [6]), 5.1 ± 0.7 Log10CFU; in the assay with resistant strain of MTB (setting [7]), 5.47 ± 0.54 Log10CFU. Moreover, the “Mean Log10CFU in organs of mice infected … Lung” value came to 5.91 ± 0.35 Log10CFU with resistant strain of MTB (setting [8]); 4.79 ± 0.55 Log10CFU with resistant strain of MTB (setting [9]); 5.34 ± 0.34 Log10CFU with resistant strain of MTB (setting [10]); 5.42 ± 0.74 Log10CFU with resistant strain of MTB (setting [11]); 4.76 ± 0.20 Log10CFU in the assay on resistant strain of MTB (setting [12]); 4.77 ± 0.61 Log10CFU in the assay on resistant strain of MTB (setting [13]). Further, the “Mean Log10CFU in organs … Spleen” value with resistant strain of MTB (setting [2]) came to 4.61 ± 0.43 Log10CFU; in the assay with resistant strain of MTB (setting [3]), 5.19 ± 0.65 Log10CFU; with resistant strain of MTB (setting [4]), 5.36 ± 0.84 Log10CFU; with resistant strain of MTB (setting [5]), 5.88 ± 0.41 Log10CFU; in the assay with resistant strain of MTB (setting [6]) it was 5.72 ± 0.17 Log10CFU; in the assay on resistant strain of MTB (setting [7]) it was 5.01 ± 0.45 Log10CFU. Further, the “Mean Log10CFU in organs … Spleen” value with resistant strain of MTB (setting [8]) is 5.7 ± 0.34 Log10CFU; with resistant strain of MTB (setting [9]), 5.62 ± 0.63 Log10CFU; with resistant strain of MTB (setting [10]) it was 4.97 ± 0.52 Log10CFU; with resistant strain of MTB (setting [11]), 5.1 ± 0.61 Log10CFU; in the assay with resistant strain of MTB (setting [12]) it was 5.64 ± 066 Log10CFU; in the assay with resistant strain of MTB (setting [13]), 4.83 ± 0.68 Log10CFU.

As to `Cc1c(CN2CCN(c3cccc(C(F)(F)F)c3)CC2)cc(-c2ccccc2)n1NC(=O)c1ccncc1` [Compound of formula (I)], in the assay with M. tuberculosis isolates, the MIC50 was 0.12 µg/mL. For the same molecule, the MIC90 with M. tuberculosis isolates stood at 0.25 µg/mL. For the same molecule, the “MIC against M. tuberculosis isolates, Range” value against M. tuberculosis isolates (approximately 200 sensitive and resistant clinical isolates) was in the range of 0.12 to 0.5 µg/mL. Moreover, the “dose giving 2 log reduction in the organs” value in the assay with resistant strain of MTB is on record as 12.5 mg/kg. The “Mean Log10CFU in organs of mice infected … Lung” value turned out to be 2.86 ± 0.37 Log10CFU with resistant strain of MTB (setting [2]); 1.30 ± 1.02 Log10CFU with resistant strain of MTB (setting [3]); 2.37 ± 0.81 Log10CFU with resistant strain of MTB (setting [4]); 3.32 ± 0.6 Log10CFU in the assay with resistant strain of MTB (setting [5]); 2.51 ± 0.18 Log10CFU in the assay with resistant strain of MTB (setting [6]); 2.97 ± 0.53 Log10CFU in the assay with resistant strain of MTB (setting [7]). The “Mean Log10CFU in organs of mice infected … Lung” value in the assay with resistant strain of MTB (setting [8]) was 2.83 ± 0.66 Log10CFU; in the assay with resistant strain of MTB (setting [9]) it was 1.86 ± 0.97 Log10CFU; in the assay on resistant strain of MTB (setting [10]), 2.70 ± 0.36 Log10CFU; in the assay on resistant strain of MTB (setting [11]), 2.51 ± 0.72 Log10CFU; in the assay with resistant strain of MTB (setting [12]), 1.79 ± 0.92 Log10CFU; with resistant strain of MTB (setting [13]), 2.59 ± 0.22 Log10CFU. The “Mean Log10CFU in organs … Spleen” value is 2.25 ± 0.18 Log10CFU in the assay with resistant strain of MTB (setting [2]); 1.64 ± 1.12 Log10CFU in the assay on resistant strain of MTB (setting [3]); 2.52 ± 0.48 Log10CFU in the assay on resistant strain of MTB (setting [4]); 3.1 ± 1.13 Log10CFU in the assay on resistant strain of MTB (setting [5]); 2.6 ± 0.34 Log10CFU with resistant strain of MTB (setting [6]); 3.02 ± 0.22 Log10CFU in the assay with resistant strain of MTB (setting [7]). For the same molecule, the “Mean Log10CFU in organs … Spleen” value is on record as 2.61 ± 0.56 Log10CFU in the assay on resistant strain of MTB (setting [8]); 1.79 ± 0.92 Log10CFU in the assay with resistant strain of MTB (setting [9]); 2.54 ± 0.20 Log10CFU with resistant strain of MTB (setting [10]); 2.37 ± 0.61 Log10CFU with resistant strain of MTB (setting [11]); 1.69 ± 0.88 Log10CFU with resistant strain of MTB (setting [12]); 2.32 ± 0.39 Log10CFU with resistant strain of MTB (setting [13]). Also, in assay [1] (one month (Table III)), the “reduction in viable bacilli in the target organs as compared to control animals” value is reported as above 2 log. For the same molecule, the “animals with complete absence of mycobacterium” value in assay [1] (treated for three months) is 33%.

The record behind these values is patent US7491721B2, “Antimycobacterial pharmaceutical composition” (priority 2004, dated 2009).
